# Test results taken from publication PMC10878751, “N-Substituted Phenylhydrazones Kill the Ring Stage of Plasmodium falciparum” (BioMed Research International, 2024).
# Where two headings read alike, the source gives them in different places.
# How the values were obtained:
# [1] = test system: 3D7 chloroquine-sensitive strain of Plasmodium falciparum; assay: SYBR green antimalarial assay, 3D7 strain
# Procedure: (§1) The SYBR green and cytotoxicity assay procedure to determine the potency of the phenylhydrazones was according to [16].
# (§2) One-milligram (1 mg) powder of each compounds was weighed and transferred into dimethylsulphoxide (DMSO) (1 ml of 0.5% v/v) to yield a stock concentration of 1000 μg/ml. The stock solution was vortexed well to dissolve the compounds and later filtered through 0.2 μm pore filter unit and then stored in a -20°C freezer until use. The stock products were diluted 10-fold to obtain a working solution of 100 μg/ml. This working solution was further serially diluted […] to obtain the concentrations 100 μg/ml, 50 μg/ml, 25 μg/ml, 12.5 μg/ml, 6.25 μg/ml, 3.13 μg/ml, 1.56 μg/ml, 0.78 μg/ml, and 0.39 μg/ml.
# (§3) Continuous P. falciparum asexual cultures were maintained in vitro in an atmosphere of 93% N2, 4% CO2, and 3% O2 at 37°C in complete medium (CM) (10.44 g/liter Roswell Park Memorial Institute Medium (RPMI) 1640, 5.94 g/liter N-2-hydroxyethylpiperazine-N-2-ethane sulfonic acid (HEPES), 5 g/liter AlbuMAX II, 50 mg/liter hypoxanthine, and 2.1 g/liter sodium bicarbonate). Parasites were cultured in O+ RBCs and maintained in the incubator with daily media change until a parasitemia of more than 5% ring stages was obtained. The culture was then treated with 5% sorbitol to obtain synchronized ring stage, and parasite growth was monitored for some few days by estimating percentage (%) parasitemia using Giemsa-stained slides and light microscope with 100x magnification until parasitemia of more than 5% was recorded. Parasite suspension of 2% hematocrit with 1% parasitemia was prepared using uninfected blood to make a total of 14 ml in a complete culture medium for the plating. Compound plating and SYBR green assay were according to [16].
# (§4) One hundred (100) microliters of each nine dilutions (100 μg/ml, 50 μg/ml, 25 μg/ml, 12.5 μg/ml, 6.25 μg/ml, 3.13 μg/ml, 1.56 μg/ml, 0.78 μg/ml, and 0.39 μg/ml) was plated in duplicate in a 96-well coastal plate. 15 ng/ml of artesunate was serially diluted and plated alongside with the compounds as a standard antimalarial control drug. One hundred of parasite mix with 2% hematocrit and 1% parasitemia were added to each treated well starting from the 2nd well to the 10th well. One hundred microliters of parasite mix without any drug was added to the 11th well as a negative control, and the procedure was repeated for the rest of other extract/compounds. The plates were arranged in a modular chamber and gassed for 5 min with gas mixture of 5% oxygen, 5% carbon dioxide, and 90% nitrogen and then kept at 37°C for 72 h.
# (§5) The plates were harvested after 72 h, and the assays were paused by adding 100 μl lysing buffer containing SYBR green to each well and was thoroughly and gently mixed to avoid production of bubbles. The plates were then incubated in the dark for 30-60 minutes before reading the assay using FLUOstar OPTIMA Fluorometer plate reader with control software version 2.20 at 470 nm and 520 nm wavelengths.
# (§6) Each compound was tested in triplicate concentration that inhibits asexual Plasmodium falciparum parasite by 50% (IC50) estimated from dose-response curves by nonlinear regression analysis using GraphPad Prism version 7.0 software (GraphPad software, San Diego, CA, USA). Cytotoxicity analysis was carried out using Microsoft Excel Version 2010.
# [2] = test system: DD2 chloroquine-resistance strain; assay: SYBR green antimalarial assay, DD2 strain
# Procedure: as §1, §2, §3, §4, §5, §6
# [3] = test system: uninfected red blood cells; assay: MTT cytotoxicity assay; settings: uninfected red blood cells, 72 h, MTT
# Procedure: as §1
# (§7) Following that, 100 μl of uninfected red blood cells was put to each well. Compound, culture medium, and uninfected red blood cells were subtracted from the optical densities by running control experiments for each parameter independently alongside the main experiment. The plates were then incubated for 72 hours at 37°C in a humidified incubator with 5% O2 and CO2 before 20 μl of 2.5 mg/ml MTT (in phosphate-buffered saline) solution was added to each well, and the plate was incubated for another 2 hours. After incubation, aliquots of culture medium (150 μl) were taken and discarded from each well, and 200 μl of Triton X-100 in acidified isopropanol was added to each well to dissolve any formazan produced. The plates were then maintained at room temperature in the dark for 24 hours before the optical densities of the wells were measured using a plate reader at 570 nm. […] The CC50 values were compared to the standard values.
# [4] = MTT cytotoxicity assay
# Procedure: as §1, §7
# [5] = Plasmodium falciparum, 3D7, 72 h, read-out: 3D7 IC50
# [6] = Plasmodium falciparum, DD2, 72 h, read-out: DD2 IC50
# [7] = Plasmodium falciparum, DD2, read-out: pIC50 Dd2 (converted)
# [8] = Plasmodium falciparum, 3D7, read-out: pIC50 3D7 (converted)
Compound,"pIC50 3D7 ([1]; calculated from in vitro IC50s, 3D7 CS strain)","IC50 ([1]; read-out: 3D7 IC50, 3D7 chloroquine-sensitive strain, ring stage, 72 h, SYBR green) [µM]","pIC50 Dd2 ([2]; calculated from in vitro IC50s, DD2 CR strain)","IC50 ([2]; read-out: DD2 IC50, DD2 chloroquine-resistant strain, ring stage, 72 h, SYBR green) [µM]",CC50 [3] [µM],SI = CC50/IC50 for 3D7 [1],"IC50 [1, 5] [µM]",SI = CC50/IC50 for DD2 [2],"IC50 [2, 6] [µM]",CC50 at 72 h ([4]; uninfected red blood cells) [µM],SI = CC50/IC50 for 3D7 ([1]; selectivity index),"IC50 [2, 7] [µM]",SI = CC50/IC50 for DD2 ([2]; selectivity index),CC50 at 72 h [4] [µM],"IC50 [1, 8] [µM]"
"1-Benzylidene-2-(2,4-dinitrophenyl)hydrazine [PHN5]",4.25,19.02 ± 0.02,4.71,6.591 ± 0.06,112,–,–,–,–,–,–,–,–,–,–
"C[C@H]1[C@H](OC(=O)CCC(=O)O)O[C@@H]2O[C@@]3(C)CC[C@H]4[C@H](C)CC[C@@H]1[C@@]24OO3 [Artesunate, reference compound]",–,–,–,–,–,>1000,0.004688 ± 1.7e-05,>1000,0.005063 ± 2.3e-05,84.7,–,–,–,–,–
"O=[N+]([O-])c1ccc(NN=C(c2ccccc2)c2ccccc2)c([N+](=O)[O-])c1 [PHN1, (2,4-Dinitrophenyl)-2-(diphenylmethylene) Hydrazine]",–,–,–,–,–,–,31 ± 0.37,–,34.89 ± 0.17,–,3,89.1,3,106,–
"O=[N+]([O-])c1ccc(NN=Cc2ccc(O)cc2O)c([N+](=O)[O-])c1 [PHN2, 4-(2-(2,4-Dinitrophenylhydrazono) Methyl) Benzene-1,3-diol]",–,–,–,–,–,–,14.12 ± 0.04,–,16.2 ± 0.17,–,8,40.7,7,119,269
COc1cc(C=NNc2ccc([N+](=O)[O-])cc2[N+](=O)[O-])ccc1O [PHN3],–,–,–,–,–,–,6.6 ± 0.03,–,2.415 ± 0.01,–,20,6.61,55,132,18.2
"O=[N+]([O-])c1ccc(NN=Cc2cccc(O)c2)c([N+](=O)[O-])c1 [PHN6, 3-(2-2(4-Dinitrophenyl) Hydrazono) Methylphenol]",–,–,–,–,–,–,1.29 ± 0.05,–,5.12 ± 0.07,–,79,17,19,101,4.27
